Data on 90 compounds can be found in a melting point compilation (Tetko et al.; mined from patent text by program, amines drawn as free bases though some values may be those of a salt).

By melting point is commonly meant the temperature, or range, at which the solid turns liquid.

The compound `CC(=O)CC(=O)NCc1ccccc1` showed a melting point of 84 to 86 °C.
With `CCCc1c(OCCCS(=O)(=O)c2ccc(CC(=O)OC)cn2)ccc(C(C)=O)c1O` the figure was 124 to 126 °C; with `COc1ccc(Cl)cc1C(=O)NC1Cc2ccc(S(=O)(=O)NC(=O)NCC3CCCC3)cc2C1` (stereo not given), 194 to 196 °C; with `OCCc1cc(Br)ccc1O`, 63 to 65 °C.
With `[O-][N+]1=C(c2ccccc2F)c2cc(Cl)ccc2-c2ncncc2C1` the figure was 185 to 186 °C.
Regarding `CCOC(=O)/C=C(C)/C=C/C=C(\C)C1=Cc2cc(Cl)cc(C)c2OC1`, the melting point was found to be 107 °C.
In the case of `O=C(O)CCc1nc(-c2cc3ccccc3o2)cs1` it was 203 to 205 °C; in that of `CC(=O)OCCc1sc2nc(=NS(=O)(=O)c3ccc(C)cc3)sn2c1-c1ccc2c(c1)CCCC2`, 126 to 127 °C; in that of `O=c1cc(N2CCOCC2)oc2c(-c3cccc(O)c3)cccc12`, 203 to 205 °C.
In the case of `CC(C)N(C)c1ncc([N+](=O)[O-])cc1Cl` it was 56 to 57 °C; in that of `C#CCn1c(-c2ccccc2)nc(CC)c(CC(N)=O)c1=O`, 196 to 198 °C; in that of `COc1cc2[nH]c(=O)c(C(=O)O)nc2cc1-n1ccc(CNC(=O)Nc2ccc(C(=O)O)cc2)c1`, > 300 °C.
With `Oc1ccc(Cl)cc1CN1COC(c2ccc(C(F)(F)F)cc2)=N1` the figure was 144 to 145 °C.
For the compound `O=C(Nc1ccc(F)c(C(F)(F)F)c1)N1COc2cc(OCc3ccccc3)ccc21`, the melting point fell in the range of 144 to 146 °C.
With `Cc1cc([N+](=O)[O-])c(Cl)c([N+](=O)[O-])c1S(=O)(=O)Cl`, the melting point is 105 to 107 °C.
In the case of `CCCCOc1ccc(-c2nc3n(c2-c2ccc(OCCCC)cc2)CCS3)cc1` it was 149 to 151 °C; in that of `NC(=O)NCc1ccc(CNC(=O)[C@@H](CCCNC(N)=N[N+](=O)[O-])NC(=O)Cc2ccc(O)cc2)cc1`, 168 to 170 °C; in that of `Cn1c(COc2ccc(CC3SC(=O)NC3=O)cc2)nc2ccc(OCc3ccccc3)nc21` (stereo not given), 210 to 211 °C.
In the case of `COc1nc2c(c(OC)n1)C(c1cc(OC)c(OC)c(OC)c1)C1=C(COC1=O)N2` (stereo not given) it was 299 to 300 °C; in that of `O=C(O)c1cc(OCCCOc2ccc(O)cc2)cc(OCCCOc2ccc(O)cc2)c1`, 160 to 162 °C; in that of `COc1ccc(C(=O)C#Cc2ccc3c(c2)c(=O)n(Cc2ccc(F)cc2)c(=O)n3C)cc1`, 240 °C.
Consider `O=C=NC(=O)SCc1ccccc1`, for which the melting point was 140 to 145 °C.
With `Clc1cc(-c2ccccc2)ccn1` the figure was 70 to 72 °C; with `COc1ccc(-c2coc3cc(OC)cc(OC)c3c2=O)c(OC)c1`, 202 to 204 °C; with `O=[N+]([O-])c1ccc(-c2oncc2CO)cc1`, 170 to 171 °C.
With `C=CCc1cc(CC(N)=O)ccc1OCC(O)CNCCC(=O)OCC` (stereo not given), the melting point came out at 98 °C.
In the case of `Cc1cc(Br)cc(C(=O)Nc2ccc(F)cn2)n1` it was 160 °C; in that of `CCOC(=O)c1cnc2cc(C)nn2c1N(C)S(=O)(=O)c1ccc(Oc2ccncc2)cc1`, 139 to 144 °C.
In the case of `CC(C)c1ccc(C(Cl)=NO)cc1` it was 61 to 63 °C.
In the case of `CNC(=O)n1nc(Oc2c(Cl)cc(C(F)(F)F)cc2Cl)c(Cl)c1C` it was 125 to 127 °C; in that of `Cc1ccc(N2C(=O)C(O)=C(C(=O)c3ccc(C4CCCCC4)cc3)C2c2ccc(OC(F)(F)F)cc2)nn1` (stereo not given), 283 to 286 °C; in that of `CC(C)(C)OC(=O)NCc1ccc(CN2CCC(c3ccccc3)CC2)cc1`, 73 to 74 °C.
Compound `Clc1cc2nc(NC3=NCCN3)[nH]c2cc1Cl` came in with a melting point of 265 to 272 °C.
With `CCCCOC(=O)c1ccc2ccc(C(=O)NCc3ccc(O)c(O)c3)nc2c1OC(=O)C(C)(C)C` the figure was 189 °C; with `CCCCCCOc1ccc(-c2cc(CO)ccc2CO)cc1`, 72.5 to 74 °C; with `CCN1CCCN(c2c(C)cccc2Cl)C1=S`, 88 to 90 °C.
`N#Cc1c(N)c(C#N)c(-c2ccccc2)c2c1CCC2` displayed a melting point of 148 to 149 °C.
In turn, `CC(C)COc1ccccc1-c1ncc(C#N)c(=O)[nH]1` had a melting point of 186 to 187 °C.
In the case of `Oc1ccc(-c2nnc(-c3ccc(O)cc3)o2)cc1` it was 338 °C; in that of `COc1cc2c(cc1C(F)(F)F)N(C(=O)Nc1ccc(Cl)c(-c3cccnc3)c1)CC2`, 210 to 213 °C.
With `O=S(=O)(NCCCCn1ccnc1)c1ccc(Br)cc1` the figure was 158 to 159 °C; with `Cc1ccc(S(=O)(=O)Nc2coc3ccccc3c2=S)cc1`, 212 °C; with `CC(C)(C)OC(=O)CC(NC(=O)CCNC(=O)Cc1ccc(C#N)cc1)C(=O)NC(Cc1ccccc1)C(=O)OC(C)(C)C` (stereo not given), 93 to 94 °C.
`Cc1ccc(C)n1-c1ccc2ccc3c([nH]c(=O)c(=O)n3CC(=O)NCc3ccccc3)c2c1`: the melting point is > 290 °C.
Compound `CCOC(=O)C1=C(C(F)(F)F)Nc2n[nH]cc2C1c1cccc2ccccc12` (stereo not given) returned a melting point of 119 to 120 °C.
With `COc1ccc2c(NC(C)=O)c(C(=O)c3ccccc3)[nH]c2c1` the figure was 144 to 146 °C; with `CCOC(=O)Cn1ncc(-c2ccccc2)c1-c1ccc(N(C)C)cc1`, 99 to 101 °C.
In the case of `COC(=O)c1ccc(N(C)C)cc1C(=O)OC` it was 54 to 57 °C; in that of `Cc1ccc(S(=O)(=O)c2nnnn2C)cc1`, 110 to 111 °C.
In the case of `NC(=O)c1c(N)cccc1OCCO` it was 149 to 151 °C.
`O=C(Nc1ccccc1)c1ccc(CSc2ccc(O)cc2)cc1` came in with a melting point of 220 to 222 °C.
In the case of `CC(C)(C)c1ccc(C(=O)NP(N)(N)=O)cc1` it was 232 °C; in that of `CN(C)c1ccc(S(=O)(=O)Nc2cnc3ccc(Cl)cc3n2)cc1`, 206 to 207 °C.
In the case of `CCOC(=O)c1cc2c3n(ccc-2n1)CC(C(C)C)=N3` it was 207 to 209 °C; in that of `O=C(O)COc1nnc(C(Cl)(Cl)Cl)s1`, 100 °C; in that of `COc1ccnc(CCc2nc3cc(-c4ccc(OCc5ccccc5)cc4)cnc3[nH]2)c1`, 161 to 162 °C.
Compound `CC(C)(C)c1cc(Nc2cccc(-c3nnn[nH]3)c2)cc(C(C)(C)C)c1O` gave a melting point of 231 to 233 °C.
With `CC(=O)Nc1c([N+](=O)[O-])cc(Br)c2c1CCN(C)C2` the figure was 190 to 192 °C; with `Cc1ccc(S(=O)(=O)C2SC(=O)N(C(c3ccccc3)(c3ccccc3)c3ccccc3)C2=O)cc1` (stereo not given), 105 to 110 °C; with `CC(C)(C)OC(=O)N1CCC[C@H]1C(=O)N1CCN(C(=O)c2ccc(C#N)cc2)CC1`, 50 °C.
With `O=C(O)c1sc(-c2cccnc2)nc1Cl` the figure was 238 to 251 °C.
In the case of `CCCCCCCCCc1c(C(F)(F)F)noc1NS(=O)(=O)c1ccccc1` it was 102 °C; in that of `COc1ncnc(-c2ccc(Cl)cc2Cl)c1C#N`, 107 to 109 °C; in that of `Cc1c(C(=O)Nc2cccc(C#N)c2N2CCC(O)CC2)cnn1C`, 261 to 262 °C.
In turn, `COCc1c[nH]c2c([N+](=O)[O-])ccc(C)c2c1=O` showed a melting point of 210 to 213 °C.
In the case of `c1ccc(OCCSCc2nnc(-c3ccc(OCCCCN4CCOCC4)cc3)o2)cc1` it was 64 to 67 °C.
In the case of `CC(=O)Oc1cc(O)c(C=O)c(OC(C)=O)c1` it was 103 to 105 °C; in that of `O=C1Nc2cccc(-c3cncnc3)c2C12COc1cc3c(cc12)OCO3` (stereo not given), 185 to 187 °C.
In the case of `Nc1ccc2nc(-c3ccc(Cl)cc3)sc2c1` it was 166 to 168 °C; in that of `COc1ccc(C=CC(=O)c2cccc(OC)c2OC)cc1F`, 79.3 to 80.2 °C; in that of `COc1ccccc1P(CCCP(c1ccccc1OC)c1ccccc1OC)c1ccccc1OC`, 149 to 150 °C.
With `Cc1ccc(CCCCCCCCCCC(Cl)(Cl)C(=O)O)cc1`, the melting point lay within 58 to 59 °C.
With `Cc1c(Cl)c(Oc2ncc(C(F)(F)F)cc2Cl)nn1C(=O)NC1CCCCC1` the figure was 94 to 96 °C.
`COC(=O)C1(CCCN2CCN(c3ccc(O)cc3)CC2)Sc2cc(OC)ccc2CCC1O` (stereo not given) returned a melting point of 120 to 124 °C.
In the case of `CC(C)C(NS(=O)(=O)c1ccc(-c2ccc([N+](=O)[O-])cc2)cc1)C(=O)O` (stereo not given) it was 165 to 167 °C.
With `C=C1c2cnccc2CC(=O)c2ccccc21` the figure was 98 to 110 °C; with `NC(=O)COc1ccc(C(=O)CN2CCN(c3ccncc3)CC2)cc1`, 247 to 248 °C.
`COc1ccc(NC(=O)c2cc(OC)c(OC)c(OC)c2)cc1`: the melting point is 160 to 161 °C.
With `Nc1nc2c(ncn2COC(CO)COC(=O)C2(N)CC2)c(=O)[nH]1` (stereo not given) the figure was > 300 °C; with `COc1ccc(/C=C(\C#N)c2ccsc2)cc1OC1CCCC1`, 83 to 84 °C; with `OC(CCN1CCN(c2ccc(F)cc2)CC1)c1cnn2c1CCCC2` (stereo not given), 130 to 131 °C.
With `O=c1[nH]c(C(F)(F)F)nc2ccccc12` the figure was 220 °C; with `CC(O)c1cccc(OCc2cccc(C(=O)O)c2)c1` (stereo not given), 115 to 117 °C.
Consider `CCOC(=O)c1c(N)nc(C)c(C(=O)CCCCCCCCCCBr)c1-c1cccc([N+](=O)[O-])c1`, for which the melting point lay in the range of 73 to 74 °C.
In the case of `COc1ccc(CCCOc2c(C)cc(-c3noc(C)n3)cc2C)cn1` it was 71 to 73 °C; in that of `O=C(O)c1ccc(F)s1`, 140 to 142 °C.
With `CN1CCN(c2cnc3ccccc3n2)CC1` the figure was 109 to 111 °C.
With `ClCCN1CCC(=C(c2ccccc2)c2ccccc2)CC1` the figure was 85 to 86 °C.
Compound `CC(C)n1c(-c2ccccc2)nc(-c2ccc(F)cc2)c1C=O` came in with a melting point of 130 to 134 °C.
The compound `Cn1c(C(F)(F)F)cc(=O)n(-c2cc(N)c(Cl)cc2F)c1=O` registered a melting point of 132 to 135 °C.
